Source: paper PMC3261798, “Design, Synthesis, and Biological Evaluation of PKD Inhibitors” (Pharmaceutics, 2011)
Values joined by “and” are separate entries in the source; they are usually repeats but may differ in a detail not shown here. Identical values can stand only once.

Tests used:
[1] = target: T1, PKD1 (Homo sapiens, UniProt Q15139); experiment: IMAP-based PKD Fluorescence Polarization (FP) assay, automated HTS format; assay type: biochemical; conditions: mean ± SEM, n = number of independent experiments
T1 sequence (Q15139 1-912): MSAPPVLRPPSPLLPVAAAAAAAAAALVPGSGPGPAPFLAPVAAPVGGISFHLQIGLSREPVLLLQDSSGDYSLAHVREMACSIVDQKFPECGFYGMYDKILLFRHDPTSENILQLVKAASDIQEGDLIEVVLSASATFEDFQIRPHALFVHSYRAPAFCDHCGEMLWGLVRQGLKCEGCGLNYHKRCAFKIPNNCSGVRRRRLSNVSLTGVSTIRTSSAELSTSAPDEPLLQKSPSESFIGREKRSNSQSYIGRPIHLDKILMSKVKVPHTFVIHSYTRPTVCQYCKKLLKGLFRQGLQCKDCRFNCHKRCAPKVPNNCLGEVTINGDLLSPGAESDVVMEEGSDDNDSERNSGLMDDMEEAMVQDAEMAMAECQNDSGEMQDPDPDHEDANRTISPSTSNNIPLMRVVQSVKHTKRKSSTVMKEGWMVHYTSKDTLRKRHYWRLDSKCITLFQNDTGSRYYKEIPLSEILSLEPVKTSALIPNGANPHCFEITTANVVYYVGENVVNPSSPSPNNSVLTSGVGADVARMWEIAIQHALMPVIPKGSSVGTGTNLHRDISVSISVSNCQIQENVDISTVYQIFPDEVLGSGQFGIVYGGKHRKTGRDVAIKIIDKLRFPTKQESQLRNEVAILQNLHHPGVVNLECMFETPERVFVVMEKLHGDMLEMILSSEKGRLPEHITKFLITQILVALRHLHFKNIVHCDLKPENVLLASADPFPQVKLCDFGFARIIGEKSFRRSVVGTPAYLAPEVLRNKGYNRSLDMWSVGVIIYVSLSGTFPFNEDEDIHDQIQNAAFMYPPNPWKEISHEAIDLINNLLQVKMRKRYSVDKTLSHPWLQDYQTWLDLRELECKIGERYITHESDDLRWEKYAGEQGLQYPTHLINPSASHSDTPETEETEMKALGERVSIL
Protocol: An automated, HTS formatted IMAP-based PKD Fluorescence Polarization (FP) assay was used to assess the specificity of the PKD analogs as previously described. […] Kinase reactions were incubated for 90 min at room temperature and stopped by the addition of IMAP binding reagent. Assay plates were then incubated for 2 h and IMAP-based FP data were captured on a Molecular Devices Spectra-Max M5 (Sunnyvale, CA, USA).

[2] = target: T1, PKD1; experiment: In vitro radiometric PKD kinase activity assay; assay type: biochemical; design: purchased Biomol International
Protocol: In vitro radiometric PKD kinase assays were conducted as previously described. Briefly, 50 ng recombinant human PKD1 (Biomol International, Plymouth Meeting, PA, USA) was incubated at 30 °C for 10 min with a reaction mixture containing 2.5 μg syntide-2 (Sigma), 70 μM ATP, and 1 μCi γ-^32 P-ATP (PerkinElmer, Boston, MA, USA) in kinase buffer (50 mM Tris-HCl pH 7.5, […], and 10 mM […]). 25 μL of the reaction mixture was then spotted on Whatman P81 filter paper (Whatman Inc., Clifton, NJ, USA), and filter papers were washed three times with 0.5% phosphoric acid, dried, then counted using a Beckman LS6500 multi-purpose scintillation counter.

[3] = target: T1, PKD1; experiment: % PKD1 activity at 1 μM (single concentration; assay format not stated); assay type: biochemical; conditions: compound at 1 μM
[4] = target: T1, PKD1; experiment: Cellular PKD1 inhibition: densitometry of Western blots for PKD1 autophosphorylation at S916 in PMA-stimulated LNCaP cells; assay type: cell-based; conditions: PKD1 autophosphorylation at S916 in LNCaP cells; mean ± SEM
Protocol: Inhibition of PKD 1 in cells was determined by densitometry analysis of Western blotting data for PKD1 autophosphorylation at Ser^916 in LNCaP cells as previously described. LNCaP cells were pre-treated with PKD inhibitors for 45 min at various concentrations, and then stimulated with 10 nM phorbol 12-myristate 13-acetate (PMA) for 20 min. Cells were then collected and lysed in lysis buffer containing 200 mM Tris-HCl, pH 7.4, 100 μM 4-(2-aminoethyl) benzenesulfonyl fluoride, 1 mM EGTA, and 1% Triton X-100. Cell lysates were probed by Western blot analysis using primary antibodies targeting p-S916-PKD1 (Millipore), PKD1 (Cell Signaling Technology), or GAPDH. Densitometry analysis of visualized bands was used to determine the cellular IC50 values for PKD1 inhibition.

[5] = mean ± SEM, n = number of independent experiments, read-out: IC50 Radiometric PKD1

| SMILES | melting point | IC50 [1] [µM] | IC50 [2, 5] [µM] | remaining activity at 1 µM [3] [%] | IC50 Radiometric PKD1 ([2]; mean ± SEM, n = number of independent experiments) | IC50 [4] | IC50 ([2]; in vitro, read-out: PKD1 IC50) [µM] |
| --- | --- | --- | --- | --- | --- | --- | --- |
| O=C1NCCC(=NNc2ccccc2)c2c1oc1ccc(O)cc21 [kb-NB142-05, 7-Hydroxy-5-(2-phenylhydrazono)-2,3,4,5-tetrahydro-[1]benzoxolo[2,3-c]azepin-1-one] | 234 to 236 °C | 21.7 ± 0.52 | 1.13 |  |  |  |  |
| NCCN1CCSc2c(sc3ccc(O)cc23)C1=O [kb-NB165-75, 2,3-Dihydro-4-(2-aminoethyl)-9-hydroxy-[1]benzothieno[2,3-f]-1,4-thiazepin-5(2H)-one] | 250 to 254 °C |  | 0.757 | 55.6 |  |  |  |
| Nc1ccc2[nH]c3c(c2c1)CCNC3=O [kb-NB142-08, 6-Amino-2,3,4,9-tetrahydro-1H-pyrido[3,4-b]indol-1-one] | 280 to 282 °C | 74.4 ± 2.2 | 15.7 ± 0.19 |  |  |  |  |
| COC(=O)c1sc2ccc(OC)cc2c1NCCCO [kb-NB184-80, Methyl 3-(3-hydroxypropylamino)-5-methoxybenzo[b]thiophene-2-carboxylate] | 116 to 120 °C |  |  | 91.3 ± 1.5 | not inhibitory |  |  |
| Nc1ccc2sc3c(c2c1)SCCNC3=O [mcf292-03, 3,4-Dihydro-9-amino-[1]benzothieno[2,3-f]-1,4-thiazepin-5(2H)-one] | 198.6 to 199 °C |  | 3.17 | 74.4 ± 1.1 |  |  |  |
| O=C1NCCSc2c1sc1ccc(O)c(Br)c21 [kb-NB184-52, 3,4-Dihydro-9-hydroxy-10-bromo-[1]benzothieno[2,3-f]-1,4-thiazepin-5(2H)-one] | 235 to 238 °C (dec.) |  | 0.048 | 12.7 ± 0.2 |  |  |  |
| O=C1NCCCc2c1oc1ccc(O)c(Cl)c21 [kb-NB77-88, 6-Chloro-7-hydroxy-2,3,4,5-tetrahydro-[1]benzoxolo[2,3-c]azepin-1-one] | > 300 °C | 1.4 ± 0.1 | 0.89 |  |  |  |  |
| COc1ccc2sc3c(c2c1)[S+]([O-])CCNC3=O (stereo not drawn) [kb-NB184-45, 3,4-Dihydro-9-methoxy-1-oxide-[1]benzothieno[2,3-f]-1,4-thiazepin-5(2H)-one] | 215 to 217 °C |  |  | 97 ± 16 |  |  |  |
| c1ccc(COc2ccc3sc4c(c3c2)SCCNC4)cc1 [kb-NB165-81, 2,3,4,5-Tetrahydro-9-benzyloxy-[1]benzothieno[2,3-f]-1,4-thiazepine] | 144 to 145 °C |  | 39.6 | 78.3 |  |  |  |
| COc1ccc2sc3c(c2c1)SCCCNC3=O [kb-NB184-02, 2,3,4,5-Tetrahydro-10-methoxybenzo[b]thieno[2,3-f]-1,5-thiazocin-6-one] | 185 to 188 °C |  | 0.19 ± 0.03 | 29.5 |  |  |  |
| O=C1NCCSc2c1sc1c(O)cccc21 [kb-NB184-40, 3,4-Dihydro-7-hydroxy-[1]benzothieno[2,3-f]-1,4-thiazepin-5(2H)-one] | 269 to 272 °C (dec.) |  |  | 99 ± 11 |  |  |  |
| C=CCOc1ccc2oc3c(c2c1)CCCNC3=O [kb-NB77-84, 7-Allyloxy-2,3,4,5-tetrahydro-[1]benzoxolo[2,3-c]azepin-1-one] | 198 to 200 °C | 2.6 ± 0.2 | 1.23 |  |  |  |  |
| COc1cccc2c3c(sc12)C(=O)NCCS3 [kb-NB184-44, 3,4-Dihydro-7-methoxy-[1]benzothieno[2,3-f]-1,4-thiazepin-5(2H)-one] | 220 to 224 °C |  |  | 77.5 ± 3.6 |  |  |  |
| O=C1NCCCOc2c1sc1ccc(OCc3ccccc3)cc21 [kb-NB184-36, 2,3,4,5-Tetrahydro-10-benzyloxybenzo[b]thieno[2,3-f]-1,5-oxazocin-6-one] | 195 to 200 °C |  |  | 83.3 ± 3.8 |  |  |  |
| O=C1NCCSc2c1sc1c(OCc3ccccc3)cccc21 [kb-NB184-38, 3,4-Dihydro-7-benzyloxy-[1]benzothieno[2,3-f]-1,4-thiazepin-5(2H)-one] | 213 to 215 °C |  |  | 98.6 ± 4.1 |  |  |  |
| O=C1NCCCc2c1oc1ccc(O)c(F)c21 [kb-NB96-21, 6-Fluoro-7-hydroxy-2,3,4,5-tetrahydro-[1]benzoxolo[2,3-c]azepin-1-one] | > 300 °C | 1.3 ± 0.05 | 0.24 |  |  |  |  |
| [N-]=[N+]=Nc1ccc2sc3c(c2c1)SCCNC3=O [mcf292-08, 3,4-Dihydro-9-azido-[1]benzothieno[2,3-f]-1,4-thiazepin-5(2H)-one] | 193 °C (dec.) |  | 0.08 ± 0.01 |  |  | 2.2 µM and 2.17 µM | 0.0749 |
| O=C1NCCc2c1oc1ccc(O)cc21 [kb-NB123-23A, 6-Hydroxy-3,4-dihydrobenzoxolo[2,3-c]pyridin-1(2H)-one] | 265 to 268 °C | 12.6 ± 1.3 | 1.41 |  |  |  |  |
| O=C1NCCSc2c1[s+]([O-])c1ccc(O)cc21 (stereo not drawn) [kb-NB184-22, 3,4-Dihydro-9-hydroxy-6-oxide-[1]benzothieno[2,3-f]-1,4-thiazepin-5(2H)-one] | 160 to 163 °C (dec.) |  |  | 66.5 ± 6.1 |  |  |  |
| O=C1NCCC(=O)c2c1oc1ccc(O)cc21 [kb-NB123-63, 7-Hydroxy-3,4-dihydro-[1]benzoxolo[2,3-c]azepine-1,5(2H)-dione] | > 300 °C | 14.9 ± 1.2 | 0.85 ± 0.11 |  |  |  |  |
| COc1ccc2sc3c(c2c1)OCCCNC3=O [kb-NB184-57, 2,3,4,5-Tetrahydro-10-methoxybenzo[b]thieno[2,3-f]-1,5-oxazocin-6-one] | 233 to 237 °C |  |  | 62 ± 3.5 |  |  |  |
| Oc1ccc2sc3c(c2c1)SCCNC3 [kb-NB165-83, 2,3,4,5-Tetrahydro-9-hydroxy-[1]benzothieno[2,3-f]-1,4-thiazepine] | 182 to 184 °C (dec.) |  | 16.4 | 92.4 |  |  |  |
| O=C1NCCC(O)c2c1oc1ccc(O)cc21 (stereo not drawn) [kb-NB123-89, 5,7-Dihydroxy-2,3,4,5-tetrahydro-[1]benzoxolo[2,3-c]azepin-1-one] | 280 to 282 °C | 24.1 ± 0.71 | 1.23 ± 0.21 |  |  |  |  |
| C=CCc1c(O)ccc2oc3c(c12)CCCNC3=O [kb-NB96-02, 6-Allyl-7-hydroxy-2,3,4,5-tetrahydro-[1]benzoxolo[2,3-c]azepin-1-one] | 255 to 257 °C | 2.4 ± 0.3 | 1.58 |  |  |  |  |
| COc1ccc2c(c1)c1c([s+]2[O-])C(=O)NCCS1 (stereo not drawn) [kb-NB184-25, 3,4-Dihydro-9-methoxy-6-oxide-[1]benzothieno[2,3-f]-1,4-thiazepin-5(2H)-one] | 284 to 287 °C |  | 1.08 | 50.4 ± 2.3 |  |  |  |
| O=C1NCCc2c1[nH]c1ccc(O)cc21 [kb-NB123-59, 2,3,4,9-Tetrahydro-6-hydroxy-1H-pyrido[3,4-b]indol-1-one] | 244 to 247 °C | 19.4 ± 1.4 | 1.57 ± 0.2 |  |  |  |  |
| O=C1NCCCSc2c1sc1ccc(OCc3ccccc3)cc21 [kb-NB165-89, 2,3,4,5-Tetrahydro-10-benzyloxybenzo[b]thieno[2,3-f]-1,5-thiazocin-6-one] | 198 to 199 °C |  | 21.7 | 84.3 |  |  |  |
